Where two headings read alike, the source gives them in different places.

Data on two compounds can be found in US20170105979A1, “USE OF A TORASEMIDE-BASED VETERINARY COMPOSITION FOR LOW-DOSE ADMINISTERING” (VIRBAC, priority 2014, published 2017).

The conditions of data set [1]: cited from earlier work.
The conditions of data set [2]: single administration, healthy rats and dogs; cited from earlier work.
Data set [3] in a line: urine volume over 24 h in treated healthy dogs. It counts as in vivo, female Beagle dogs. Particulars: FIG. 3. The procedure:
(§1) Several criteria were evaluated in order to determine the efficacy of this dosage: • urine volume • water consumption • urinary sodium clearance • urinary potassium clearance • osmolar clearance • free-water clearance • urinary fraction excretion of sodium • urinary fraction excretion of potassium. […] The following measurements are carried out: • →urine: volume, pH, creatinine, osmolarity, sodium, potassium; • →plasma: sodium, potassium, urea, aldosterone.

For data set [4] the following is noted: 7 days, cited from earlier work; for clinical state of the disease: furosemide 5.13 mg/kg/day or torasemide 0.5 mg/kg/day, oral twice-daily.
The conditions of data set [5]: prolonged treatments of 14 days; torasemide 0.4 mg/kg/day; cited from earlier work.
Data set [6] in a line: water consumption over 24 h in treated healthy dogs. It is filed as in vivo, female Beagle dogs. The settings on record: FIG. 4. Here is the method:
as §1

For data set [7] the following is noted: 0.2 mg/kg/day in the morning for 28 days, dogs with congestive heart failure; cited from earlier work.
Data set [8] can be described thus: urinary sodium clearance in healthy female Beagle dogs. It counts as in vivo. Here is the method: Several criteria were evaluated in order to determine the efficacy of this dosage: • urine volume • water consumption • urinary sodium clearance • urinary potassium clearance • osmolar clearance • free-water clearance • urinary fraction excretion of sodium • urinary fraction excretion of potassium. […] The following measurements are carried out: • →urine: volume, pH, creatinine, osmolarity, sodium, potassium; • →plasma: sodium, potassium, urea, aldosterone. In this experiment, torasemide is tested at two single doses: 0.05 mg/kg or 0.5 mg/kg for a daily administration for three weeks. The continuous administration of diuretics causes a net deficit of sodium ions in the body, but renal compensation mechanisms adjust sodium excretion in line with sodium intake. This phenomenon is known as “diuretic braking”. […] In the experimental studies described above, carried out on healthy dogs, the modification of urinary sodium excretion by torasemide is evaluated by calculating urinary sodium clearance according to the following equation: Urinary sodium concentration×total urine volume/plasma sodium concentration

The nature of data set [9]: plasma urea concentration (innocuousness). It counts as in vivo, female Beagle dogs. Particulars: FIG. 7.
A short description of data set [10]: plasma creatinine and creatinine clearance (innocuousness). It is filed as in vivo, female Beagle dogs. The settings on record: torasemide 0.05 mg/kg/day. The procedure: Other criteria were evaluated in order to determine the safety of this dosage: • plasma creatinine • creatinine clearance • plasma urea • plasma aldosterone. […] The following measurements are carried out: • →urine: volume, pH, creatinine, osmolarity, sodium, potassium; • →plasma: sodium, potassium, urea, aldosterone.

Data set [11] is described as follows: plasma aldosterone concentration (innocuousness). It is filed as in vivo, female Beagle dogs. Particulars: FIG. 8.
Data set [12] in a line: urinary fractional excretion of sodium (FENa) in healthy dogs. It counts as in vivo, female Beagle dogs. Particulars: single (0.05 or 0.5 mg/kg) and repeated administrations for three weeks; FIGS. 9 and 10. The text has this: One of the solutions for making the link between clinical and experimental is the calculation of the fractional excretion of sodium. This value is the ratio of the urinary sodium clearance to the urinary creatinine clearance. It requires assaying the creatinine in the plasma and in the urine, and also assaying the sodium in the plasma and the urine also, which is entirely envisionable “in the field”. This fractional excretion of sodium (FENa) represents the percentage of sodium filtered by the kidney that is finally excreted in the urine. It is determined using equation 1 below: where Naurine and […] are the sodium concentrations in the urine and the plasma, respectively, and Creatinineplasma and Creatinineurine are the creatinine concentrations in the plasma and the urine, respectively. The fractional excretion of sodium is the sodium excretion divided by the glomerular filtration rate (GFR), the GFR being estimated by the creatinine clearance.

Data set [13] can be described thus: urinary potassium clearance in treated healthy dogs. Particulars: first day of treatment, low-dose torasemide compared with other treatments; FIG. 5. It is filed as in vivo, female Beagle dogs. Here is the method: Several criteria were evaluated in order to determine the efficacy of this dosage: • urine volume • water consumption • urinary sodium clearance • urinary potassium clearance • osmolar clearance • free-water clearance • urinary fraction excretion of sodium • urinary fraction excretion of potassium. […] The following measurements are carried out: • →urine: volume, pH, creatinine, osmolarity, sodium, potassium; • →plasma: sodium, potassium, urea, aldosterone. The excretion of potassium ions in the urine of the treated dogs was measured over a period of 24 hours, and is presented in FIG. 5.

Where [14] appears, read: high dose of torasemide (0.5 mg/kg/day), D18 and D28.
Setting [15] is: low dose of torasemide (0.05 mg/kg/day).

For the compound `NS(=O)(=O)c1cc(C(=O)O)c(NCc2ccco2)cc1Cl` [furosemide], in data set [1] (furosemide), the “time after administration at which the diuretic effect decreases” value is 6 h. Besides, in data set [1] (torasemide 0.2 mg/kg), the “time after administration at which the diuretic effect appears” value is “approximately 1 hours”. Moreover, the “dose-effect relationship for diuretic effect and ion secretion” value in data set [2] was “relationship between the dose administered and the size of the diuretic effect and of the ion secretion”. In addition, the urine volume entry in [3] (furosemide 5 mg/kg/day, from first day (D7), maintained over three weeks) was “clear increase”. In addition, the “clinical state of the disease” value in data set [4] was “maintain the disease in a stable state”. Besides, the diuretic resistance result in [5] is “develop “diuretic resistance””. In [6] (furosemide 5 mg/kg/day, especially D18 and D28), the “water consumption over a period of 24 h” value is “clear increase”.
For `Cc1cccc(Nc2ccncc2S(=O)(=O)NC(=O)NC(C)C)c1` [torasemide, N-[(isopropyl-amino)carbonyl]-4-[(3-methylphenyl)amino]pyridine-3-sulfonamide], the “potassium excretion in the urine” value in data set [1] (sick dogs, after 7 days, compared with furosemide) is “less than that observed for the dogs treated with furosemide”; in data set [7] it was “increased”. Moreover, the “persistence of the diuretic effect” value in data set [1] (torasemide 0.2 mg/kg) was 12 h. Also, the “dose-effect relationship for diuretic effect and ion secretion” value in [2] is “relationship between the dose administered and the size of the diuretic effect and of the ion secretion”. In addition, the urine volume result was “do not show any change” in data set [3] (torasemide 0.05 mg/kg/day, D7, D18, D28) and “clear increase” in data set [3] (torasemide 0.5 mg/kg/day, from first day (D7), maintained over three weeks). In addition, the “clinical state of the disease” value in data set [4] is “maintain the disease in a stable state”. Besides, the “diuretic effect compared with furosemide” value in [4] (torasemide 0.5 mg/kg/day vs furosemide 5.13 mg/kg/day) is reported as “better diuretic effect”. Besides, the sodium excretion entry in data set [7] is given as “not increased”. Besides, the diuretic resistance result in data set [5] is listed as “this resistance does not occur”. In addition, the plasma creatinine concentrations entry in data set [5] was “increase in plasma creatinine concentrations”. In addition, the diuretic braking effect result in data set [8] (dogs in good health, single dose of 0.5 mg/kg) was “occurs”. Moreover, the “net effect over the course of 24 hours on urinary sodium clearance” value in data set [8] (repeated administrations, high dose of torasemide 0.5 mg/kg/day, FIG. 2) is “no net effect”. Also, in data set [8] (repeated administrations, low dose of torasemide 0.05 mg/kg, D7, D18, D28, FIG. 2), the “effect on urinary sodium clearance” value is recorded as “effect that was clearly visible”. Moreover, in data set [8] (single dose, low dose 0.05 mg/kg compared with high dose 0.5 mg/kg, FIG. 1), the “overall effect on sodium clearance over the course of 24 hours” value is on record as “higher than the overall effect of the high dose of torasemide (0.5 mg/kg)”. In addition, the plasma urea concentration entry in data set [9] (setting [14]) is listed as “increase”. The “increase in plasma urea concentration” value in [9] (setting [15]) was “not observed”. For the same compound, the “water consumption over a period of 24 h” value in [6] (torasemide 0.05 mg/kg/day) was “only a small change”; in data set [6] (torasemide 0.5 mg/kg/day, especially D18 and D28) it was “clear increase”. Also, the plasma creatinine concentration entry in data set [10] (whatever the day of the sample) is given as “no effect”. The creatinine clearance entry in [10] (FIG. 6) is listed as “no effect”. Besides, in [11] (setting [14]), the plasma aldosterone concentration entry is recorded as “increase”. Moreover, the “increase in plasma aldosterone concentration” value in [11] (setting [15]) is reported as “not observed”. In [12], the “fractional excretion of sodium” value is “in agreement with those obtained by directly measuring the urinary sodium clearance”. Besides, the “effect on potassium ion excretion in the urine” value in data set [13] is “lower than with the other treatments”.
